These molecules were tested on Bovine cardiac myofibrils (assay: In vitro model of dose-dependent myofibril ATPase modulation (AC1.4, pyruvate kinase/lactate dehydrogenase-coupled ATPase assay at pCa25)). Conditions: concentration at which ATPase activity was 1.4-fold higher than the bottom of the dose curve, mean of a minimum of two independent tests.
Assay type: biochemical
Method in brief: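 Bovine cardiac myofibrils, detergent-treated; 0.25-1.0 mg/ml. Buffer: K-PIPES 12 mM, MgCl2 2 mM, DTT 1 mM, BSA 0.1 mg/ml, pH 6.80, 22° C; Ca2+ set by EGTA/CaCl2. ATP 1 mM, NADH/PEP-coupled, A340. 4-parameter fit; n≥2.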

| Compound | AC1.4 [µM] |
| --- | --- |
| Cc1cc(C(=O)N2[C@@H](C(=O)N[C@@H](c3ccc(C(F)(F)F)cc3F)C3CC3)C[C@H]3C[C@H]32)c(NCCO)cn1 [Example 545, (1R,3R,5R)-N-((R)-cyclopropyl(2-fluoro-4-(trifluoromethyl)phenyl)methyl)-2-((5-((2-hydroxyethyl)amino)-2-methyl-4-pyridinyl)carbonyl)-2-azabicyclo[3.1.0]hexane-3-carboxamide] | 2.818 |
| CS(=O)(=O)c1cccc(C(=O)N2C[C@@H](F)C[C@@H]2C(=O)N[C@@H](c2ccc(C(F)(F)F)cc2)C2COC2)c1 [Example 546, (4S)-4-fluoro-1-(3-(methylsulfonyl)benzoyl)-N-((R)-3-oxetanyl(4-(trifluoromethyl)phenyl)methyl)-D-prolinamide] | 2.6257 |
| O=C(N[C@@H](c1ccc(C(F)(F)F)cc1F)C1CC1)[C@H]1C[C@H]2C[C@H]2N1C(=O)c1cccc(C(O)C(F)(F)F)c1 (stereo partly drawn) [Example 547, (1R,3R,5R)-N-((R)-cyclopropyl(2-fluoro-4-(trifluoromethyl)phenyl)methyl)-2-(3-(2,2,2-trifluoro-1-hydroxyethyl)benzoyl)-2-azabicyclo[3.1.0]hexane-3-carboxamide] | 2.836 |
| CS(=O)(=O)c1cncc(C(=O)N2[C@@H](C(=O)N[C@@H](c3ccc(C(F)(F)F)c(F)c3)C3CC3)C[C@H]3C[C@H]32)c1 [Example 548, (1R,3R,5R)-N-((R)-cyclopropyl(3-fluoro-4-(trifluoromethyl)phenyl)methyl)-2-((5-(methylsulfonyl)-3-pyridinyl)carbonyl)-2-azabicyclo[3.1.0]hexane-3-carboxamide] | 2.66 |
| N#CC1CN(S(=O)(=O)N2CCC[C@H](C(=O)N3CCC[C@@H]3C(=O)NCc3cc(Cl)ccc3F)C2)C1 [Example 549, N-(5-chloro-2-fluorobenzyl)-1-(((3S)-1-((3-cyano-1-azetidinyl)sulfonyl)-3-piperidinyl)carbonyl)-D-prolinamide] | 2.8405 |
| CS(=O)(=O)c1ccc(N2CC(C#N)C2)c(C(=O)N2CCC[C@@H]2C(=O)N[C@@H](c2ccc(C(F)(F)F)cc2F)C2CC2)c1 [Example 550, (R)-1-(2-(3-cyanoazetidin-1-yl)-5-(methylsulfonyl)benzoyl)-N—((R)-cyclopropyl(2-fluoro-4-(trifluoromethyl)phenyl)methyl)pyrrolidine-2-carboxamide] | 2.8425 |
| N#Cc1ccc(CNC(=O)[C@H]2CCCN2C(=O)[C@H]2CCCN(S(=O)(=O)N3CC(C#N)C3)C2)cc1 [Example 551, 1-(((3S)-1-((3-cyano-1-azetidinyl)sulfonyl)-3-piperidinyl)carbonyl)-N-(4-cyanobenzyl)-D-prolinamide] | 2.8435 |
| CS(=O)(=O)c1cccc(C(=O)N2CCSCC2C(=O)N[C@@H](c2ccc(C(F)(F)F)cc2F)C2CC2)c1 (stereo partly drawn) [Example 552, N-((R)-cyclopropyl(2-fluoro-4-(trifluoromethyl)phenyl)methyl)-4-(3-(methylsulfonyl)benzoyl)thiomorpholine-3-carboxamide] | 2.854 |
| O=C(N[C@@H](c1ccc(C(F)(F)F)cc1F)C1CC1)[C@H]1C[C@H]2C[C@H]2N1C(=O)c1ccccc1NC(=O)C(F)(F)F [Example 553, (1R,3R,5R)-N-((R)-cyclopropyl(2-fluoro-4-(trifluoromethyl)phenyl)methyl)-2-(2-(2,2,2-trifluoroacetamido)benzoyl)-2-azabicyclo[3.1.0]hexane-3-carboxamide] | 2.873 |
| CCOc1ccc(S(C)(=O)=O)cc1C(=O)N1CCC[C@@H]1C(=O)N[C@@H](c1ccc(C(F)(F)F)cc1F)C1CC1 [Example 554, N-((R)-cyclopropyl(2-fluoro-4-(trifluoromethyl)phenyl)methyl)-1-(2-ethoxy-5-(methylsulfonyl)benzoyl)-D-prolinamide] | 2.688 |
| CCc1ccnc(C(=O)N2[C@@H](C(=O)N[C@@H](c3cc(F)c(Cl)cc3F)C3COC3)C[C@H]3C[C@H]32)c1 [Example 555, (1R,3R,5R)-N-((R)-(4-chloro-2,5-difluorophenyl)(3-oxetanyl)methyl)-2-((4-ethyl-2-pyridinyl)carbonyl)-2-azabicyclo[3.1.0]hexane-3-carboxamide] | 2.893 |
| O=C(N[C@@H](c1ccc(C(F)(F)F)cc1F)C1CC1)[C@H]1CCCN1C(=O)c1cccc(C(O)C(F)(F)F)c1 (stereo partly drawn) [Example 556, (2R)-N-((R)-cyclopropyl(2-fluoro-4-(trifluoromethyl)phenyl)methyl)-1-(3-(2,2,2-trifluoro-1-hydroxyethyl)benzoyl)pyrrolidine-2-carboxamide] | 2.9075 |
| COc1ccc(CNC(=O)[C@H]2CCCN2C(=O)[C@H]2CCCN(S(=O)(=O)N3CC(C#N)C3)C2)c(F)c1 [Example 557, 1-(((3S)-1-((3-cyano-1-azetidinyl)sulfonyl)-3-piperidinyl)carbonyl)-N-(2-fluoro-4-methoxybenzyl)-D-prolinamide] | 2.9265 |
| CS(=O)(=O)c1cccc(C(=O)N2[C@@H](C(=O)N[C@@H](c3ccc(C(F)(F)F)cc3F)C3(O)CC3)C[C@H]3C[C@H]32)c1 [Example 559, (1R,3R,5R)-N-((S)-(2-fluoro-4-(trifluoromethyl)phenyl)(1-hydroxycyclopropyl)methyl)-2-(3-(methylsulfonyl)benzoyl)-2-azabicyclo[3.1.0]hexane-3-carboxamrde] | 2.7115 |
| O=C(NCc1ccc(C(F)(F)F)cc1)[C@H]1CCCN1C(=O)c1cccc(S(=O)(=O)N2CC[C@@H](O)C2)c1 [Example 560, 1-((3-(((3R)-3-hydroxy-1-pyrrolidinyl)sulfonyl)phenyl)carbonyl)-N-(4-(trifluoromethyl)benzyl)-D-prolinamide,1-((3-(((3S)-3-hydroxy-1-pyrrolidinyl)sulfonyl)phenyl)carbonyl)-N-(4-(trifluoromethyl)benzyl)-D-prolinamide] | 2.9638 |
| N#CC1CN(S(=O)(=O)N2CCC[C@H](C(=O)N3CCC[C@@H]3C(=O)N[C@@H](CO)c3ccc(C(F)(F)F)cc3)C2)C1 [Example 561, 1-(((3S)-1-((3-cyano-1-azetidinyl)sulfonyl)-3-piperidinyl)carbonyl)-N-((1R)-2-hydroxy-1-(4-(trifluoromethyl)phenyl)ethyl)-D-prolinamide] | 2.9935 |
| O=C(NCc1ccc(C(F)(F)F)cc1)[C@H]1CCCN1C(=O)[C@H]1CCCN(S(=O)(=O)N2CC(n3ccnc3)C2)C1 [Example 562, 1-(((3S)-1-((3-(1H-imidazol-1-yl)-1-azetidinyl)sulfonyl)-3-piperidinyl)carbonyl)-N-(4-(trifluoromethyl)benzyl)-D-prolinamide] | 3.025 |
| CS(=O)(=O)c1ccc(F)c(C(=O)N2CCC[C@@H]2C(=O)N[C@@H](c2ccc(C(F)(F)F)cc2F)C2CC2)c1F [Example 563, N-((R)-cyclopropyl(2-fluoro-4-(trifluoromethyl)phenyl)methyl)-1-(2,6-difluoro-3-(methylsulfonyl)benzoyl)-D-prolinamide] | 2.8195 |
| CCN(CC)S(=O)(=O)c1cccc(C(=O)N2CCC[C@@H]2C(=O)NCc2ccc(C(F)(F)F)cc2)c1 [Example 564, 1-(3-(diethylsulfamoyl)benzoyl)-N-(4-(trifluoromethyl)benzyl)-D-prolinamide] | 3.077 |
| N#CC1CN(S(=O)(=O)N2CCC[C@H](C(=O)N3CCC[C@@H]3C(=O)N[C@H]3Cc4ccccc43)C2)C1 [Example 565, N-((7S)-bicyclo[4.2.0]octa-1,3,5-trien-7-yl)-1-(((3S)-1-((3-cyano-1-azetidinyl)sulfonyl)-3-piperidinyl)carbonyl)-D-prolinamide] | 3.077 |
| NS(=O)(=O)c1ccc(F)c(C(=O)N2CCC[C@@H]2C(=O)N[C@@H](c2ccc(C(F)(F)F)cc2F)C2CC2)c1 [Example 566, N-((R)-cyclopropyl(2-fluoro-4-(trifluoromethyl)phenyl)methyl)-1-(2-fluoro-5-sulfamoylbenzoyl)-D-prolinamide] | 3.0845 |
| CS(=O)(=O)c1ccc(C(=O)N2CCC[C@@H]2C(=O)NC(c2ccc(C(F)(F)F)cc2F)C2CC2)s1 (stereo partly drawn) [Example 567, (2R)-N-(cyclopropyl(2-fluoro-4-(trifluoromethyl)phenyl)methyl)-1-(5-(methylsulfonyl)thiophene-2-carbonyl)pyrrolidine-2-carboxamide] | 3.1075 |
| CS(=O)(=O)c1ccc(C(=O)N2CCC[C@@H]2C(=O)NC(c2ccc(C(F)(F)F)cc2F)C2CC2)cn1 (stereo partly drawn) [Example 569, (2R)-N-(cyclopropyl(2-fluoro-4-(trifluoromethyl)phenyl)methyl)-1-(6-(methylsulfonyl)nicotinoyl)pyrrolidine-2-carboxamide] | 3.182 |
| CS(=O)(=O)c1cccc(C(=O)N2[C@@H](C(=O)N[C@@H](c3cc(F)c(C#N)cc3F)C3CC3)C[C@H]3C[C@H]32)c1 [Example 570, (1R,3R,5R)-N-((R)-(4-cyano-2,5-difluorophenyl)(cyclopropyl)methyl)-2-(3-(methylsulfonyl)benzoyl)-2-azabicyclo[3.1.0]hexane-3-carboxamide] | 3.1825 |
| Cc1ccccc1CNC(=O)[C@H]1CCCN1C(=O)[C@H]1CCCN(S(=O)(=O)N2CC(C#N)C2)C1 [Example 571, 1-(((3S)-1-((3-cyano-1-azetidinyl)sulfonyl)-3-piperidinyl)carbonyl)-N-(2-methylbenzyl)-D-prolinamide] | 3.1845 |
| C[C@@H](NC(=O)[C@H]1[C@@H]2C[C@@H]2CN1C(=O)c1cccc(S(=O)(=O)N(C)C)c1)c1ccc(C(F)(F)F)cc1 [Example 572, (1R,2R,5S)-3-(3-(dimethylsulfamoyl)benzoyl)-N-((1R)-1-(4-(trifluoromethyl)phenyl)ethyl)-3-azabicyclo[3.1.0]hexane-2-carboxamide] | 3.205 |
